Experimental data from patent publication US10106530B2, “Pyrazolyl substituted tetrahydropyranylsulfones” (GRÜNENTHAL GMBH, priority 2015, dated 2018).

Target: T1, Human CaV2.2 channels (Homo sapiens, UniProt Q00975)
T1 construct: expressed in transfected cells; also stably expressing Kir2.3)
Assay: Fluorescence assay for CaV2.2 channels using potassium depolarization to induce channel opening (FLIPR, Fluo 4)
Assay type: cell-based
Details: 30 mM KCl assay buffer (inactivated channel state), HEK293 cells; for inhibition at 3 µM: HEK293, 3 μM test compound, read-out: Activity Category: %-Inhib (CaV2.2) @3 μM @30 mM KCl; for Activity Category: %-Inhib (CaV2.2) @3 μM @30 mM KCl: 3 μM test compound
Source text: In the process, the Ca^2+ influx is quantified in the FLIPR assay with the aid of a Ca^2+-sensitive dye (type Fluo-4, Molecular Probes Europe BV, Leiden, the Netherlands) in a fluorescent imaging plate reader (FLIPR 3, Molecular Devices, Sunnyvale, USA), as described hereinafter.
[drawing 69] 2. Assay Descriptions and Biological Data: 2.1 Fluorescence Assay for CaV2.2 Channels Using Potassium Depolarization to Induce Channel Opening
Human CaV2.2 channels were stably expressed in HEK293 cells together with alpha2-delta and beta subunits of voltage gated calcium channels. In addition, an inwardly rectifying potassium channel (Kir2.3) was stably expressed in these cells to augment control of the cell membrane potential by the concentration of extracellular potassium ions. Raise of the extracellular potassium concentration leads to depolarization of the membrane potential and thus regulates the voltage dependent state of CaV2.2 channels. For preparation, cells were seeded in black poly-D-lysine coated 96-well plates (Becton Dickinson, Biocoat 4640) in 100 μL medium [500 mL DMEM/F-12 plus Glutamax (Invitrogen 31331-093) plus 5.5 mL MEM NEAA 100× (Invitrogen 11140-035) plus 50 mL FBS decomplemented (Invitrogen 10270-106) plus 200 μg/mL Geneticin (Invitrogen 10131-027) plus 50 μg/mL Hygromycin B (Invitrogen 10687-010) plus 2 μg/mL Blasticidin (anti-b15b Invivo-Gen) plus 0.2 μg/mL Puromycin (A 11138-03)] at a cell density of 30.000 cells per well. Plates were incubated at 37° C. (5% CO2) for 20 to 23 h. On the day of experiment medium was discarded and cells were loaded with Fluo 4 by addition of 100 μL of basic assay buffer (10 mM HEPES, 1 mM KCl, 149 mM NaCl, 0.8 mM CaCl2, 1.7 mM MgCl2, 10 mM Glucose, 0.1% BSA. pH 7.4) containing 2 μM Fluo 4 (Molecular Probes; F-14201), 0.01% pluronic acid (Molecular Probes; P-6866) and 2.5 mM probenecid (Molecular Probes; P36400). Cells were incubated in the dark at 25° C. for 60 min. Then dye containing buffer was discarded and 100 μL basic (1 mM KCl) or alternative (30 mM KCl) assay buffer was added. The alternative assay buffer contained altered concentrations of KCl (30 mM) and NaCl (120 mM) and was used in order to promote the inactivated channel state. After that 25 μL of basic or alternative assay buffer with or without test compound were added and cells were incubated again in the dark at 25° C. for 15 min. Fluorescence intensity was measured on a FLIPR 3 instrument (Molecular Devices Corp., Sunnyvale, Calif.) with excitation at 480 nm and emission at 535 nm. After continuously reading fluorescence for 30 sec, 50 μL of basic assay buffer containing 210 mM KCl(NaCl omitted) were added for depolarization. Peak fluorescent signal intensity was determined and the amplitude of the peak signal, normalized to base line, was used to measure channel inhibition by test compounds.

T1 sequence (Q00975 whole entry): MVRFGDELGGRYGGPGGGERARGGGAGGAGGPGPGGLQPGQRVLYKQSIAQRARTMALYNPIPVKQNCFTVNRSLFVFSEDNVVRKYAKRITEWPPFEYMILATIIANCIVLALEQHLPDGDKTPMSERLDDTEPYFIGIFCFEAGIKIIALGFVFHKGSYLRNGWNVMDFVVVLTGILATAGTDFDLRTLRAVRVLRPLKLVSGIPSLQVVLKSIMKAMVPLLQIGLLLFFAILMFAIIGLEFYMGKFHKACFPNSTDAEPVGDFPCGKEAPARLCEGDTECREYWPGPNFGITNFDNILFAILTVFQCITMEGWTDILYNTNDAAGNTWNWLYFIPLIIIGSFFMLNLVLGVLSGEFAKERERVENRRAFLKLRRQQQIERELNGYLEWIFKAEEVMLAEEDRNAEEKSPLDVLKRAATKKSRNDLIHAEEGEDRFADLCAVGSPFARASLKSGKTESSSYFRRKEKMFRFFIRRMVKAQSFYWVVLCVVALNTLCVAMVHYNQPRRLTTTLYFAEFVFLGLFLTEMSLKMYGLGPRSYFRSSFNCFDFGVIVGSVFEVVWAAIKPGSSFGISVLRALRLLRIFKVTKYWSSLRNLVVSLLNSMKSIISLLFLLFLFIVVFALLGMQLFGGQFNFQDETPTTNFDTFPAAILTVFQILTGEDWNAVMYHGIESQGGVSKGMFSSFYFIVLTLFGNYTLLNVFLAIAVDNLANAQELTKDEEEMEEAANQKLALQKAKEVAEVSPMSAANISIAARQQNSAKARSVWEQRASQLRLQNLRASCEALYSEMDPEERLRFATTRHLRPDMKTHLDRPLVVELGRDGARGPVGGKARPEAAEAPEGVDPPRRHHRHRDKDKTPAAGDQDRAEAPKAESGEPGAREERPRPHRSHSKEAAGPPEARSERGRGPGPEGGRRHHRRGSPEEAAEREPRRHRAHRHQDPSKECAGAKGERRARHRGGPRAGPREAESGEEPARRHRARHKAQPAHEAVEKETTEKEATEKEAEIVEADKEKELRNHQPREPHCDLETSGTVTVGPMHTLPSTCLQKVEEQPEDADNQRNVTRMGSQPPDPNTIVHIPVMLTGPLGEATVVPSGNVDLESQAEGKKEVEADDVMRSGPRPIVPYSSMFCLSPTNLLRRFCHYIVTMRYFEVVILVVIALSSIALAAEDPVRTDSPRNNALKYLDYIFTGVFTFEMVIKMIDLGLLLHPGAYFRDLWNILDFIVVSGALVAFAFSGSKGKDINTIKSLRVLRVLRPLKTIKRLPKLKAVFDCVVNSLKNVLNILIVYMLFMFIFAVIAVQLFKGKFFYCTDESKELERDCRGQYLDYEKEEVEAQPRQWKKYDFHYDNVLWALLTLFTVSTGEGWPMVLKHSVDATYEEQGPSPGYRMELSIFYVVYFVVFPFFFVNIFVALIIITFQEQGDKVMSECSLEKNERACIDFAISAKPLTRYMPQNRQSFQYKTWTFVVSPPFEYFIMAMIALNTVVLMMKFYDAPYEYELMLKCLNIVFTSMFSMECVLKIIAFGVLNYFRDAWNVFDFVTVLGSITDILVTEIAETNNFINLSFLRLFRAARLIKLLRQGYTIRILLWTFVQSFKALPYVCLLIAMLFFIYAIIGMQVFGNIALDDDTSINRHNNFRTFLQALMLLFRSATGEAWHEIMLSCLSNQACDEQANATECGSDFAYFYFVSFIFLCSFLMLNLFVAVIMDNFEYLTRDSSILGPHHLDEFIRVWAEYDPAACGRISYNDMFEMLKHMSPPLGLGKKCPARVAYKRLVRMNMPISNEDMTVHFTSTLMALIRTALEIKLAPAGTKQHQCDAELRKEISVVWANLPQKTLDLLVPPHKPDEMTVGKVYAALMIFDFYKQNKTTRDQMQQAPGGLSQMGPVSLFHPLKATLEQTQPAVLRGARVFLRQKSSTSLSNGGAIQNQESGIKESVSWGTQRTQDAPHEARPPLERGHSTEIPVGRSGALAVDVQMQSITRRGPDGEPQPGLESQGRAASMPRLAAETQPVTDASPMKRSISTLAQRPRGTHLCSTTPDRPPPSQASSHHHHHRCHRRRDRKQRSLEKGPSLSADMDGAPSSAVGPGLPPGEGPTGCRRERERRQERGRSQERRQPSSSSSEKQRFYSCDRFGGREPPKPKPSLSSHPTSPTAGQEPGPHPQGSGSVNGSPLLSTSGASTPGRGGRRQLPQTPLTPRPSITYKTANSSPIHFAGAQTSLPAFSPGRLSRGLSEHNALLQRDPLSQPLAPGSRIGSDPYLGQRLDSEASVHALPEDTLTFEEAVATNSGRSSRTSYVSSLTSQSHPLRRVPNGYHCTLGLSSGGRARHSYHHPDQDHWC

| SMILES | inhibition at 3 µM | also measured |
| --- | --- | --- |
| CC1(S(=O)(=O)c2cccc(C(F)(F)F)c2)CCOC(c2cc(CC(F)(F)F)n[nH]2)C1 (racemic) [Example 15 cis-rac, 5-[4-Methyl-4-[[3-(trifluoromethyl)phenyl]sulfonyl]-tetrahydro-pyran-2-yl]-3-(2,2,2-trifluoro-ethyl)-1H-pyrazole] | > 95% |  |
| C[C@@]1(S(=O)(=O)c2cccc(C(F)(F)F)c2)CCO[C@@H](c2cc(S(=O)(=O)C(F)F)n[nH]2)C1 (racemic) [[trans-rac] Example 1, 3-(Difluoro-methylsulfonyl)-5-[4-methyl-4-[[3-(trifluoromethyl)phenyl]sulfonyl]-tetrahydro-pyran-2-yl]-1H-pyrazole] | 75 to 95% |  |
| CC1(S(=O)(=O)c2cccc(C(F)(F)F)c2)CCOC(c2cc(C(F)F)[nH]n2)C1 (racemic) [[trans-rac] Example 12, 5-(Difluoro-methyl)-3-[4-methyl-4-[[3-(trifluoromethyl)phenyl]sulfonyl]-tetrahydro-pyran-2-yl]-1H-pyrazole] | 75 to 95% |  |
| CC1(S(=O)(=O)c2cccc(C(F)(F)F)c2)CCOC(c2cc(S(=O)(=O)CC(F)F)n[nH]2)C1 (stereo not drawn) [Example 3 cis-EN1, 3-(2,2-Difluoro-ethylsulfonyl)-5-[4-methyl-4-[[3-(trifluoromethyl)phenyl]sulfonyl]-tetrahydro-pyran-2-yl]-1H-pyrazole] | 30 to 40% |  |
| CC1(S(=O)(=O)c2cccc(C(F)(F)F)c2)CCOC(c2cc(S(=O)(=O)C3COC3)n[nH]2)C1 (stereo not drawn) [Example 4 cis-EN1, 5-[4-Methyl-4-[[3-(trifluoromethyl)phenyl]sulfonyl]-tetrahydro-pyran-2-yl]-3-(oxetan-3-ylsulfonyl)-1H-pyrazole] |  | Activity Category: %-Inhib (CaV2.2) @3 μM @30 mM KCl (listed as 4 cis-EN1): C (%-Inhibition >40% up to ≤75%) |
| CC1(S(=O)(=O)c2cccc(C(F)(F)F)c2)CCOC(c2cc(S(=O)(=O)C3COC3)n[nH]2)C1 (stereo not drawn) [Example 4 cis-EN2, 5-[4-Methyl-4-[[3-(trifluoromethyl)phenyl]sulfonyl]-tetrahydro-pyran-2-yl]-3-(oxetan-3-ylsulfonyl)-1H-pyrazole] |  | Activity Category: %-Inhib (CaV2.2) @3 μM @30 mM KCl (listed as 4 cis-EN2): B (%-Inhibition >75% up to ≤95%) |
| COCCS(=O)(=O)c1cc(C2CC(C)(S(=O)(=O)c3cccc(C(F)(F)F)c3)CCO2)[nH]n1 (stereo not drawn) [Example 5 cis-EN1, 3-(2-Methoxy-ethylsulfonyl)-5-[4-methyl-4-[[3-(trifluoromethyl)phenyl]sulfonyl]-tetrahydro-pyran-2-yl]-1H-pyrazole] |  | Activity Category: %-Inhib (CaV2.2) @3 μM @30 mM KCl (listed as 5 cis-EN1): B (%-Inhibition >75% up to ≤95%) |
| COCCS(=O)(=O)c1cc(C2CC(C)(S(=O)(=O)c3cccc(C(F)(F)F)c3)CCO2)[nH]n1 (stereo not drawn) [Example 5 cis-EN2, 3-(2-Methoxy-ethylsulfonyl)-5-[4-methyl-4-[[3-(trifluoromethyl)phenyl]sulfonyl]-tetrahydro-pyran-2-yl]-1H-pyrazole] |  | Activity Category: %-Inhib (CaV2.2) @3 μM @30 mM KCl (listed as 5 cis-EN2): C (%-Inhibition >40% up to ≤75%) |
| CC(C)(c1cc(C2CC(C)(S(=O)(=O)c3cccc(C(F)(F)F)c3)CCO2)[nH]n1)S(C)(=O)=O (stereo not drawn) [Example 7 cis-EN1, 3-(1-Methyl-1-methylsulfonyl-ethyl)-5-[4-methyl-4-[[3-(trifluoromethyl)phenyl]sulfonyl]-tetrahydro-pyran-2-yl]-1H-pyrazole] | 75 to 95% |  |
| CC1(S(=O)(=O)c2cccc(C(F)(F)F)c2)CCOC(c2cc(CCS(C)(=O)=O)n[nH]2)C1 (stereo not drawn) [Example 9 cis-EN1, 3-(2-Methylsulfonyl-ethyl)-5-[4-methyl-4-[[3-(trifluoromethyl)phenyl]sulfonyl]-tetrahydro-pyran-2-yl]-1H-pyrazole] | 40 to 75% |  |
| CC(F)(F)c1cc(C2CC(C)(S(=O)(=O)c3cccc(C(F)(F)F)c3)CCO2)[nH]n1 (stereo not drawn) [Example 13 cis-EN1, 3-(1,1-Difluoro-ethyl)-5-[4-methyl-4-[[3-(trifluoromethyl)phenyl]sulfonyl]-tetrahydro-pyran-2-yl]-1H-pyrazole] | > 95% |  |
| CC1(S(=O)(=O)c2cccc(C(F)(F)F)c2)CCOC(c2cc(CC(F)F)n[nH]2)C1 (stereo not drawn) [Example 14 cis-EN1, 3-(2,2-Difluoro-ethyl)-5-[4-methyl-4-[[3-(trifluoromethyl)phenyl]sulfonyl]-tetrahydro-pyran-2-yl]-1H-pyrazole] | 75 to 95% |  |
| CC1(S(=O)(=O)c2cccc(C(F)(F)F)c2)CCOC(c2cc(CC(F)F)n[nH]2)C1 (stereo not drawn) [Example 14 cis-EN2, 3-(2,2-Difluoro-ethyl)-5-[4-methyl-4-[[3-(trifluoromethyl)phenyl]sulfonyl]-tetrahydro-pyran-2-yl]-1H-pyrazole] |  | Activity Category: %-Inhib (CaV2.2) @3 μM @30 mM KCl: A (%-Inhibition >95%) |
| CC1(S(=O)(=O)c2cccc(C(F)(F)F)c2)CCOC(c2cc(OCC(F)(F)F)n[nH]2)C1 (stereo not drawn) [Example 16 cis-EN2, 5-[4-Methyl-4-[[3-(trifluoromethyl)phenyl]sulfonyl]-tetrahydro-pyran-2-yl]-3-(2,2,2-trifluoro-ethoxy)-1H-pyrazole] | > 95% |  |
| CC1(S(=O)(=O)c2cccc(C(F)(F)F)c2)CCOC(c2cc(C3(O)COC3)n[nH]2)C1 (stereo not drawn) [Example 18 cis-EN1, 3-[5-[4-Methyl-4-[[3-(trifluoromethyl)phenyl]sulfonyl]-tetrahydro-pyran-2-yl]-1H-pyrazol-3-yl]-oxetan-3-ol] | 40 to 75% |  |
| CC(C)(O)c1cc(C2CC(C)(S(=O)(=O)c3cccc(C(F)(F)F)c3)CCO2)[nH]n1 (stereo not drawn) [Example 19 cis-EN1, 2-[5-[4-Methyl-4-[[3-(trifluoromethyl)phenyl]sulfonyl]-tetrahydro-pyran-2-yl]-1H-pyrazol-3-yl]-propan-2-ol] |  | Activity Category: %-Inhib (CaV2.2) @3 μM @30 mM KCl (listed as 19 cis-EN1): B (%-Inhibition >75% up to ≤95%) |
| CC(C)(O)c1cc(C2CC(C)(S(=O)(=O)c3cccc(C(F)(F)F)c3)CCO2)[nH]n1 (stereo not drawn) [Example 19 cis-EN2, 2-[5-[4-Methyl-4-[[3-(trifluoromethyl)phenyl]sulfonyl]-tetrahydro-pyran-2-yl]-1H-pyrazol-3-yl]-propan-2-ol] |  | Activity Category: %-Inhib (CaV2.2) @3 μM @30 mM KCl (listed as 19 cis-EN2): C (%-Inhibition >40% up to ≤75%) |
| CC1(S(=O)(=O)c2cccc(C(F)(F)F)c2)CCOC(c2cc(S(=O)(=O)C(F)(F)F)n[nH]2)C1 (stereo not drawn) [Example 27 cis-EN1, 3-(Trifluoro-methylsulfonyl)-5-[4-methyl-4-[[3-(trifluoromethyl)phenyl]sulfonyl]-tetrahydro-pyran-2-yl]-1H-pyrazole] | > 95% |  |
| CC1(S(=O)(=O)c2cccc(C(F)(F)F)c2)CCOC(c2cc(S(=O)(=O)C(F)(F)F)n[nH]2)C1 (stereo not drawn) [Example 27 cis-EN2, 3-(Trifluoro-methylsulfonyl)-5-[4-methyl-4-[[3-(trifluoromethyl)phenyl]sulfonyl]-tetrahydro-pyran-2-yl]-1H-pyrazole] |  | Activity Category: %-Inhib (CaV2.2) @3 μM @30 mM KCl: B (%-Inhibition >75% up to ≤95%) |
| CC1(S(=O)(=O)c2cccc(C(F)(F)F)c2)CCOC(c2cc(CS(=O)(=O)C(F)F)n[nH]2)C1 (stereo not drawn) [Example 28 cis-EN1, 3-[(Difluoro-methylsulfonyl)-methyl]-5-[4-methyl-4-[[3-(trifluoromethyl)phenyl]sulfonyl]-tetrahydro-pyran-2-yl]-1H-pyrazole] | 75 to 95% |  |
| CC1(S(=O)(=O)c2cccc(C(F)(F)F)c2)CCOC(c2cc(S(=O)(=O)CC(F)(F)F)n[nH]2)C1 (stereo not drawn) [Example 29 cis-EN1, 5-[4-Methyl-4-[[3-(trifluoromethyl)phenyl]sulfonyl]-tetrahydro-pyran-2-yl]-3-(2,2,2-trifluoro-ethylsulfonyl)-1H-pyrazole] | 75 to 95% |  |
